Measurements from PMC3340383, “Synthesis and Evaluation of a Series of 2-Substituted-5-Thiopropylpiperazine (Piperidine)-1,3,4-Oxadiazoles Derivatives as Atypical Antipsychotics” (PLoS ONE, 2012).
Read-outs that look alike come from different tables or passages of the source. Blank lines part the entries; values can stand above or below the compound they belong to.

Tests used:
[1] = tested on: apomorphine-induced climbing behavior in mice; assay: Apomorphine-induced climbing; assay type: in vivo; conditions: Mus musculus; mice, po; 95% confidence limits in parentheses; read-out: Apomorphine-induced climbing ED50 (A)
Protocol: . […] . Animals were then challenged at 30 minutes post-injection with 1.0 mg/kg of the apomorphine in 0.9% NaCl+0.1% ascorbic acid, placed in cylindrical wire cages (12 cm in diameter, 14 cm in height), and observed for climbing behavior at 10, 20 and 30 min post dose. The climbing behaviour was scored as follows: 3–4 paws on the cage floor = 0 score; 2 and 3 paws on the cage = 1 score; 4 paws on the cage = 2 score.

[2] = in vivo; conditions: Kun Ming (KM), mouse, po
[3] = tested on: MK-801-induced hyperactivity in mice; assay: MK-801-induced hyperactivity; conditions: Mus musculus, po, read-out: MK-801-induced hyperactivity ED50 (B)
[4] = biological target: T1, dopamine D2 receptor (Rattus norvegicus, UniProt P61169); assay: D2 dopaminergic binding assay ([3H]spiperone, rat striatum); conditions: read-out: Ki±SEM, D2
T1 construct: Rat striatum was homogenized in 20 volumes of ice-cold 50 mM Tris-HCl buffer; from tissue; host or cells: rat striatum
T1 sequence (P61169 whole entry): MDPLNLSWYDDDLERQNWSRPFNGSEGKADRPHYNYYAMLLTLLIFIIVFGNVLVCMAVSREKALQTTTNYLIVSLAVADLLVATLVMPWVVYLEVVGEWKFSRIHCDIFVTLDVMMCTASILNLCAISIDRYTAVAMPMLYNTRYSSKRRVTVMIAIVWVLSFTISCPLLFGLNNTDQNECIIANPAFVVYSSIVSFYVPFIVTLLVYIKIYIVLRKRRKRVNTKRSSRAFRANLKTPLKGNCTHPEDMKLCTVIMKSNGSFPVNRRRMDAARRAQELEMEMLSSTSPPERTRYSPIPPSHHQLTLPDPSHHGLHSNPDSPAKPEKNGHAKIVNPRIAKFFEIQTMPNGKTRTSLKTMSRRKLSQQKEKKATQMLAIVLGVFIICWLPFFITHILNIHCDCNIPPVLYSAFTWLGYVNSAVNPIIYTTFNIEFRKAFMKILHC
Protocol: (§1) All the new compounds were dissolved in 5% DMSO. The following specific radioligands and tissue sources were used: (a) serotonin 5-HT1A receptor, [^3H]8-OH-DPAT, rat brain cortex; (b) serotonin 5-HT2A receptor, [^3H]ketanserin, rat brain cortex; (c) serotonin 5-HT2C receptor, [^3H]mesulergine, rat brain cortex; (d) dopamine D2 receptor, [^3H]spiperone, rat striatum; (e) dopamine D3 receptor, [^3H]spiperone, rat olfactory tubercle (f) histamine H1 receptor, [^3H] pyrilamine, guinea pig cerebellum.
(§2) Total binding was determined in the absence of no-specific binding and compounds. Specific binding was determined in the presence of compounds. Non-specific binding was determined as the difference between total and specific binding.
(§3) Percentage of inhibition (%) = (total binding − specific binding)×100%/(total binding − nonspecific binding).
(§4) Ki values were calculated based on the Cheng and Prussoff equation: Ki = IC50/(1+C/Kd) where C represents the concentration of the hot ligand used and Kd its receptor dissociation constant were calculated for each labeled ligand. Mean Ki values and SEM were reported for at least three independent experiments.
Rat striatum was homogenized in 20 volumes of ice-cold 50 mM Tris-HCl buffer (pH 7.7) using an ULTRA TURAX homogeniser, and centrifuged twice for 10 min at 48,000 g with resuspension of the pellet in fresh buffer. The final pellet was resuspended in 50 mM ice-cold Tris-HCl containing 120 mM NaCl, 5 mM KCl, 2 mM CaCl2, 1 mM MgCl2, 0.1% ascorbic acid and 5 µM pargyline.
Total binding each assay tube was added 900 µL of the tissue suspension, 50 µL of 0.5 nM [^3H]spiperone (16.2 Ci/mmol; Perkin Elmer Life Sciences, Boston, MA, USA), 50 µL Tris-HCl buffer containing 120 mM NaCl, 5 mM KCl, 2 mM CaCl2, 1 mM MgCl2, 0.1% ascorbic acid and 5 µM pargyline.
Non-specific binding each assay tube was added 900 µL of the tissue suspension, 50 µL of 0.5 nM [^3H]spiperone, 50 µL of 10 µM (+)-butaclamol.
Specific binding each assay tube was added 900 µL of the tissue suspension, 50 µL of 0.5 nM [^3H]spiperone, 50 µL of new compounds or reference drug.
(§5) The incubation was followed by a rapid vacuum filtration through Whatman GF/B glass filters, and the filtrates were washed twice with 5 mL cold buffer and transferred to scintillation vials. Scintillation fluid (3.0 mL) was added and the radioactivity bound was measured using a Beckman LS 6500 liquid scintillation counter.

[5] = biological target: T2, serotonin 5-HT1A receptor (Rattus norvegicus, UniProt P19327); assay: 5-HT1A binding assay ([3H]8-OH-DPAT, rat brain cortex); conditions: read-out: Ki±SEM, 5HT1A
T2 construct: Rat cerebral cortex was homogenized in 20 volumes of ice-cold Tris-HCl buffer; from tissue; host or cells: rat brain (cerebral) cortex
T2 sequence (P19327 1-422): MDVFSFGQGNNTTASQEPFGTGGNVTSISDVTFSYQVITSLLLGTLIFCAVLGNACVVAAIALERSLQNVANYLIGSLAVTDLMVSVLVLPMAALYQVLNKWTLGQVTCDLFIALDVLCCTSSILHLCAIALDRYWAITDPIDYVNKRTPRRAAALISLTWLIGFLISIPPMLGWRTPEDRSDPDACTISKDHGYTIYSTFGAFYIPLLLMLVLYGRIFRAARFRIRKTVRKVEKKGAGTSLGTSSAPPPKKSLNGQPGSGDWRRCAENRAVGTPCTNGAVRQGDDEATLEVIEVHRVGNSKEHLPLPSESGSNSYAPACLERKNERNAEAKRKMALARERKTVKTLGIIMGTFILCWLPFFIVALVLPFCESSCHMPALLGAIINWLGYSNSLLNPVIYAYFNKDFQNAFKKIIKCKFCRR
Protocol: as §1, §2, §3, §4
Rat cerebral cortex was homogenized in 20 volumes of ice-cold Tris-HCl buffer (50 mM, pH 7.7) using an ULTRA TURAX homogeniser, and was then centrifuged at 32000 g for 10 min. […] The final pellet was resuspended in Tris-HCl buffer containing 10 µM Pargyline, 4 mM CaCl2 and 0.1% ascorbic acid.
Total binding each assay tube was added 900 µL of the tissue suspension, 50 µL of 0.5 nM [^3H]8-OH-DPAT (187.4 Ci/mmol, Perkin Elmer Life Sciences, Boston, MA, USA), 50 µL Tris-HCl buffer containing 10 µM Pargyline, 4 mM CaCl2 and 0.1% ascorbic acid.
Non-specific binding each assay tube was added 900 µL of the tissue suspension, 50 µL of 0.5 nM [^3H]8-OH-DPAT, 50 µL of 10 µM serotonin.
Specific binding each assay tube was added 900 µL of the tissue suspension, 50 µL of 0.5 nM [^3H]8-OH-DPAT, 50 µL of new compounds or reference drug.
as §5, with “5mL” for “5 mL”

[6] = biological target: T3, serotonin 5-HT2A receptor (Rattus norvegicus, UniProt P14842); assay: 5-HT2A binding assay ([3H]ketanserin, rat brain cortex); conditions: read-out: Ki±SEM, 5HT2A
T3 construct: Rat cerebral cortex was homogenized in 20 volumes of ice-cold Tris-HCl buffer; from tissue; host or cells: rat brain (cerebral) cortex
T3 sequence (P14842 whole entry): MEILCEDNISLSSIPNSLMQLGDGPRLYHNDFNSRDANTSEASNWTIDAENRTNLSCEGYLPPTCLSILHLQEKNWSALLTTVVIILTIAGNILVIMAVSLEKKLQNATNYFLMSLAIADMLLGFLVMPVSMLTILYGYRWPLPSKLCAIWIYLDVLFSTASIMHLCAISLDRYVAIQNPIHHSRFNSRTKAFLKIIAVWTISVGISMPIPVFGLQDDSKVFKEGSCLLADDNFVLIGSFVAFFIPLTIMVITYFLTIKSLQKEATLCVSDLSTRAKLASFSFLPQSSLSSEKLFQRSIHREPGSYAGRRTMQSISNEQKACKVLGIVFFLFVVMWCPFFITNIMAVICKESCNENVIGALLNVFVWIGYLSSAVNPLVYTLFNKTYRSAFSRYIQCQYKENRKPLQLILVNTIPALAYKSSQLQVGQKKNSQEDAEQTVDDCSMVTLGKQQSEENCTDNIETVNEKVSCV
Protocol: as §1, §2, §3, §4
Rat cerebral cortex was homogenized in 20 volumes of ice-cold Tris-HCl buffer (50 mM, pH 7.7) using an ULTRA TURAX homogeniser, and centrifuged at 32000 g for 20 min. The resulting pellet was resuspended in the same quantity of the buffer centrifuged for 20 min. The final pellet was resuspended in 50 volumes of the Tris-HCl buffer.
Total binding each assay tube was added 900 µL of the tissue suspension, 50 µL of 0.6 nM [^3H]ketanserin (60.0 Ci/mmol, Perkin Elmer Life Sciences, Boston, MA, USA), 50 µL Tris-HCl buffer.
Non-specific binding each assay tube was added 900 µL of the tissue suspension, 50 µL of 0.6 nM [^3H]ketanserin, 50 µL of 10 µM methisergide.
Specific binding each assay tube was added 900 µL of the tissue suspension, 50 µL of 0.6 nM [^3H]ketanserin, […] of new compounds or reference drug.
as §5

[7] = biological target: T4, dopamine D3 receptor (Rattus norvegicus, UniProt P19020); assay: D3 dopaminergic binding assay ([3H]spiperone, rat olfactory tubercle); conditions: mean of three experiments, read-out: Ki±SEM, D3
T4 construct: Rat olfactory tubercle was homogenized in 20 volumes of ice-cold 50 mM Hepes Na; from tissue; host or cells: rat olfactory tubercle
T4 sequence (P19020 whole entry): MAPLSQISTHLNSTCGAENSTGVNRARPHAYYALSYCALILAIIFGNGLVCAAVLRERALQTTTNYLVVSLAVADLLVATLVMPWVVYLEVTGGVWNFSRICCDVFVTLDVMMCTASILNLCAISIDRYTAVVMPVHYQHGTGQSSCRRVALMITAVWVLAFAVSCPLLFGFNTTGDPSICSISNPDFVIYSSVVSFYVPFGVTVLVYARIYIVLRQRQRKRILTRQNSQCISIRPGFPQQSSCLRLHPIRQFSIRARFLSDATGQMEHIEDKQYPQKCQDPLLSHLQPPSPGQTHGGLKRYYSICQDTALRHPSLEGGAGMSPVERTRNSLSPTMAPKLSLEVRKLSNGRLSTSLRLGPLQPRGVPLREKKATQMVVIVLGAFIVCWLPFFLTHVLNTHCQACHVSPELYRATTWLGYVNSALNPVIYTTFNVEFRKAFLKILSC
Protocol: as §1, §2, §3, §4, §5

[8] = biological target: T5, serotonin 5-HT2C receptor (Rattus norvegicus, UniProt P08909); assay: 5-HT2C binding assay ([3H]mesulergine, rat brain cortex); conditions: mean of three experiments, read-out: Ki±SEM, 5HT2C
T5 construct: Rat cerebral cortex was homogenized in 20 volumes of ice-cold Tris-HCl buffer; from tissue; host or cells: rat brain (cerebral) cortex
T5 sequence (P08909 33-460): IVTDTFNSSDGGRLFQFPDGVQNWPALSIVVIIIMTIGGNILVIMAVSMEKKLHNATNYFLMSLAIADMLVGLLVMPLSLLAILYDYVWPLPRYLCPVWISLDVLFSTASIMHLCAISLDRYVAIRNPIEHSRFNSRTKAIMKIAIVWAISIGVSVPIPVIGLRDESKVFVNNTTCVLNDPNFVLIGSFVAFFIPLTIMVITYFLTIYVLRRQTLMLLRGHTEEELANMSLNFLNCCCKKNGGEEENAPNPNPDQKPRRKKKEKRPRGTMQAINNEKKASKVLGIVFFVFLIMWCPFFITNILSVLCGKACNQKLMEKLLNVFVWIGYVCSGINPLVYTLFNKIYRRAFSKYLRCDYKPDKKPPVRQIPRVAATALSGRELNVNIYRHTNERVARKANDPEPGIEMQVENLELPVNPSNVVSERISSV
Protocol: as §1
Total binding was determined in the absence of no-specific binding and compounds. Specific binding was determined in the presence of compounds. Non-specific binding was determined as the difference between total and specific binding. […]
Ki values were calculated based on the Cheng and Prussoff equation: Ki = IC50/(1+C/Kd) where C represents the concentration of the hot ligand used and Kd its receptor dissociation constant were calculated for each labeled ligand. […]
The resulting pellet was resuspended in the same quantity of the buffer centrifuged for 20 min. […]
as §5

[9] = biological target: T6, histamine H1 receptor (Cavia porcellus, UniProt P31389); assay: Histamine H1 binding assay ([3H]pyrilamine, guinea pig cerebellum); conditions: read-out: Ki±SEM, H1
T6 construct: Guinea pig cerebellum was homogenized in 20 volumes of ice-cold 50 mM phosphate buffer; from tissue; host or cells: guinea pig cerebellum
T6 sequence (P31389 whole entry): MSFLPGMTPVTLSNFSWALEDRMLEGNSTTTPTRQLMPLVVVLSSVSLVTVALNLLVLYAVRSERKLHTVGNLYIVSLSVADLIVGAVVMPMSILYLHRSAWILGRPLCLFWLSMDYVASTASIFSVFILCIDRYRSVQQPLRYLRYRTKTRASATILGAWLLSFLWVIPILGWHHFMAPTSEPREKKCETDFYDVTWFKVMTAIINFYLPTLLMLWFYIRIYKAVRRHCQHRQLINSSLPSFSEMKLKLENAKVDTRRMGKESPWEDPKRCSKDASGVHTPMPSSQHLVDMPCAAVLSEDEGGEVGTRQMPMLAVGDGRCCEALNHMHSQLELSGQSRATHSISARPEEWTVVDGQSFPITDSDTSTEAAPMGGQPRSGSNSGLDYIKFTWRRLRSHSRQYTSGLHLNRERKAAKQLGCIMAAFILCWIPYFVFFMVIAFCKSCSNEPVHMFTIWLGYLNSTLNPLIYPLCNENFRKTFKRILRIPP
Protocol: as §1, §2, §3, §4, §5

ED50 [2]: 0.22 mg/kg
Structure (SMILES): O=C(CCCN1CCC(O)(c2ccc(Cl)cc2)CC1)c1ccc(F)cc1 [haloperidol]
ED50 [1]: 0.09 mg/kg | ED50 [3]: 0.19 mg/kg

Ki ([4]; [3H]spiperone, rat striatum, mean of three experiments, >10000 marked b: Ki not calculated, inhibition at 10 µM too low): 18.3 ± 1.6 nM | Ki ([5]; [3H]8-OH-DPAT, rat brain cortex, mean of three experiments, >10000 marked b: Ki not calculated, inhibition at 10 µM too low): 10.5 ± 1.2 nM | Ki ([6]; [3H]ketanserin, rat brain cortex, mean of three experiments, >10000 marked b: Ki not calculated, inhibition at 10 µM too low): 6.6 ± 0.8 nM | Ki [7]: 15.5 ± 1.9 nM | Ki [8]: 502 ± 56.2 nM | Ki ([9]; [3H]pyrilamine, guinea pig cerebellum, mean of three experiments, >10000 marked b: Ki not calculated, inhibition at 10 µM too low): 18.9 ± 2.1 nM
Structure (SMILES): Fc1ccc2c(C3CCN(CCCSc4nnc(-c5ccc(Cl)cc5)o4)CC3)noc2c1 [Compound 16, 2-(3-(4-(6-fluorobenzo[d]isoxazol-3-yl)piperidin-1-yl)propylthio)-5-(4-chlorophenyl)-1,3,4-oxadiazole]

Structure (SMILES): CN1CCN(C2=Nc3cc(Cl)ccc3Nc3ccccc32)CC1 [clozapine]
ED50 [1]: 7.99 mg/kg | ED50 [2]: 92.7 mg/kg | ED50 [3]: 5.06 mg/kg

Ki [4]: 14.8 ± 1.8 nM | Ki [5]: 6.8 ± 0.7 nM | Ki [6]: 0.22 ± 0.02 nM | Ki [7]: 219 ± 35.2 nM | Ki [9]: 13.2 ± 3.4 nM
Structure (SMILES): COc1ccc(-c2nnc(SCCCN3CCC(c4noc5cc(F)ccc45)CC3)o2)cc1 [Compound 14, 2-(3-(4-(6-fluorobenzo[d]isoxazol-3-yl)piperidin-1-yl)propylthio)-5-(4-methoxyphenyl)-1,3,4-oxadiazole]
